54 molecules from patent US11021475B2, “Amide-substituted heterocyclic compounds useful as modulators of IL-12, IL-23 and/or IFN alpha responses” (Bristol-Myers Squibb Company, priority 2012, dated 2021) can be followed below.

Assay [1] has as its system IFNα stimulated Kit225 T cells (STAT-dependent luciferase reporter). In words: Kit225 T cell assay, IFNα-stimulated STAT-dependent luciferase reporter. The format is cell-based, human. As to conditions: 200 U/mL human recombinant IFNα, 5-6 hours; read-out: IFNα Kit225 Reporter (IC50). As to the method:
(§1) Kit225 T cells with a stably-integrated STAT-dependent luciferase reporter were plated in RPMI (Gibco) containing 10% heat-inactivated FBS (Gibco) and 100 U/mL PenStrep (Gibco). The cells were then stimulated with either 20 ng/mL human recombinant IL-23 or 200 U/mL human recombinant IFNα (PBL InterferonSource) for 5-6 hours. Luciferase expression was measured using the STEADY-GLO® Luciferase Assay System (Promega) according to the manufacturer's instructions. Inhibition data were calculated by comparison to no inhibitor control wells for 0% inhibition and non-stimulated control wells for 100% inhibition.
In general terms: A reporter such as luciferase makes a cellular process visible.

Assay [2] has as its system IL-23 stimulated Kit225 T cells (STAT-dependent luciferase reporter). In words: Kit225 T cell assay, IL-23-stimulated STAT-dependent luciferase reporter. The format is cell-based, human. As to conditions: 20 ng/mL human recombinant IL-23, 5-6 hours; read-out: IL-23 Kit225 Reporter (IC50). As to the method: as §1

Regarding `CNC(=O)c1nnc(Nc2ccc(F)cn2)cc1Nc1cccc(-c2ccn(C)n2)c1OC` [Example 55], the IC50 in assay [1] and in assay [2] was 20 nM in each case.

As to `CNC(=O)c1nnc(Nc2cc(C)c(F)cn2)cc1Nc1cccc(-c2ncn(C)n2)c1OC` [Example 56], the IC50 – broadly, the concentration at which inhibition is half-maximal – in assay [1] worked out at 5.45 nM; in assay [2] it was 7.01 nM.

Take `CNC(=O)c1nnc(Nc2cc(C)nc(C)n2)cc1Nc1cccc(-c2cnn(C)c2)c1OC` [Example 57]: the IC50 in assay [1] came out at 6.48 nM; in assay [2], 6.01 nM.

Turning to `CNC(=O)c1nnc(Nc2ccccn2)cc1Nc1cccc(-c2ccn(C)n2)c1OC` [Example 58], the IC50 in assay [1] came out at 8.59 nM; in assay [2], 20 nM.

For the molecule `CNC(=O)c1nnc(Nc2cc(C)c(F)cn2)cc1Nc1cccc(-c2cnn(C)c2)c1OC` [Example 59], the IC50 in assay [1] and in assay [2] was 20 nM each time.

For the molecule `CNC(=O)c1nnc(Nc2cc(C)n(C)n2)cc1Nc1cccc(-c2ncn(C)n2)c1OC` [Example 60], the IC50 in assay [1] was determined as 3.38 nM; in assay [2], 10 nM.

As for `CNC(=O)c1nnc(Nc2cc(OC(C)C)nc(C)n2)cc1Nc1cccc(-c2ncn(C)n2)c1OC` [Example 62], the results for the IC50 in assay [1] and in assay [2] were 20 nM and 30 nM, respectively.

Take `CNC(=O)c1nnc(NC(=O)C2CC2)cc1Nc1cccc(-c2cnn(C)c2)c1OC` [Example 63]: the figures for the concentration for half-maximal inhibition (IC50) in assay [1] and in assay [2] were 60 nM and 40 nM, respectively.

With `CNC(=O)c1nnc(NC(=O)C2CC2)cc1Nc1cccc(-n2cccn2)c1OC` [Example 64], the IC50 in assay [1] amounted to 60 nM; in assay [2] it was 250 nM.

Regarding `CNC(=O)c1nnc(Nc2ccccn2)cc1Nc1cccc(-n2cccn2)c1OC` [Example 65], the IC50 in assay [1] is 20 nM; in assay [2], 60 nM.

For `CNC(=O)c1nnc(NC(=O)C2CC2)cc1Nc1cccc(-c2ncn(C)n2)c1OC` [Example 67], the IC50 in assay [1] was 70 nM; in assay [2], 100 nM.

With `CCc1cc(Nc2cc(Nc3cccc(-c4ncn(C)n4)c3OC)c(C(=O)NC)nn2)ncn1` [Example 68], the values for the IC50 in assay [1] and in assay [2] were 3.45 nM and 6.56 nM, respectively.

Regarding `CNC(=O)c1nnc(Nc2ccc(F)cn2)cc1Nc1cccc(-c2ncccn2)c1OC` [Example 71], the values for the IC50 in assay [1] and in assay [2] were 5.99 nM and 10 nM, respectively.

With `CNC(=O)c1nnc(Nc2ccc(F)cn2)cc1Nc1cccc(-c2cnccn2)c1OC` [Example 74], the IC50 in assay [1] is 5.15 nM; in assay [2] it was 20 nM.

For `CNC(=O)c1nnc(Nc2ccc(F)cn2)cc1Nc1cccc(-c2ccccn2)c1OC` [Example 77], the IC50 in assay [1] is 20 nM; in assay [2] it was 70 nM.

With `CNC(=O)c1nnc(Nc2ccc(F)cn2)cc1Nc1cccc(-c2cccnn2)c1OC` [Example 79], the half-inhibitory concentration (IC50) in assay [1] came to 30 nM; in assay [2] it was 80 nM.

Regarding `CNC(=O)c1nnc(Nc2ccc(F)cn2)cc1Nc1cccc(-c2nccc(C)n2)c1OC` [Example 83], the IC50 in assay [1] is 40 nM; in assay [2], 50 nM.

Regarding `CNC(=O)c1nnc(Nc2cc(OC)ncn2)cc1Nc1cccc(-c2ncn(C)n2)c1OC` [Example 88], the IC50 in assay [1] worked out at 9.97 nM; in assay [2], 20 nM.

For `CNC(=O)c1nnc(Nc2ccc(F)cn2)cc1Nc1cccc(-c2ccncn2)c1OC` [Example 89], the IC50 in assay [1] was 2.18 nM; in assay [2], 20 nM.

Take `CNC(=O)c1nnc(Nc2ccccn2)cc1Nc1cccc(-c2ncccn2)c1OC` [Example 91]: the values for the IC50 in assay [1] and in assay [2] were 3.62 nM and 20 nM, respectively.

For `CNC(=O)c1nnc(Nc2cc(C)n(C)n2)cc1Nc1cccc(-c2ncccn2)c1OC` [Example 92], the IC50 turned out to be 8.63 nM in assay [1] and 40 nM in assay [2].

`CNC(=O)c1nnc(Nc2cc(C)n(C)n2)cc1Nc1cccc(-c2ccn(C)n2)c1OC` [Example 93]: the IC50 in assay [1] worked out at 10 nM; in assay [2], 50 nM.

On to `CNC(=O)c1nnc(NC(=O)C2CC2)cc1Nc1cccc(-c2nc(C)cs2)c1OC` [Example 95], for which the half-maximal inhibitory concentration (IC50) is 20 nM in assay [1] and 100 nM in assay [2].

Consider `CNC(=O)c1nnc(Nc2ccccn2)cc1Nc1cccc(-c2ccncn2)c1OC` [Example 96], for which the IC50 turned out to be 7.38 nM in assay [1] and 40 nM in assay [2].

`CNC(=O)c1nnc(Nc2cc(C)nc(C)n2)cc1Nc1cccc(-c2nc(C)cs2)c1OC` [Example 97]: the 50% inhibitory concentration (IC50) in assay [1] stood at 20 nM; in assay [2] it was 10 nM.

Regarding `CNC(=O)c1nnc(Nc2cc(OC(C)C)ncn2)cc1Nc1cccc(-c2ncn(C)n2)c1OC` [Example 98], the IC50 stood at 9.16 nM in assay [1] and 30 nM in assay [2].

Take `CNC(=O)c1nnc(Nc2cc(N3CCN(CCO)CC3)nc(C)n2)cc1Nc1cccc(-c2ncn(C)n2)c1OC` [Example 99]: the IC50 in assay [1] is 20 nM; in assay [2], 60 nM.

In the case of `CNC(=O)c1nnc(Nc2cc(C)n(C)n2)cc1Nc1cccc(-c2nc(C)cs2)c1OC` [Example 100], the IC50 in assay [1] was found to be 50 nM; in assay [2], 40 nM.

For `CNC(=O)c1nnc(NC(=O)C2CC2)cc1Nc1cccc(-c2ncc(C)s2)c1OC` [Example 101], the half-inhibitory concentration (IC50) in assay [1] was found to be 60 nM; in assay [2], 100 nM.

In the case of `CNC(=O)c1nnc(Nc2ccnc(C)n2)cc1Nc1cccc(-c2ncn(C)n2)c1OC` [Example 103], the IC50 in assay [1] amounted to 6.06 nM; in assay [2], 20 nM.

For the molecule `CNC(=O)c1nnc(NC(=O)C2CC2)cc1Nc1cccc(-c2nccs2)c1OC` [Example 105], the IC50 turned out to be 140 nM in assay [1] and 180 nM in assay [2].

`CNC(=O)c1nnc(Nc2cc(C)c(F)cn2)cc1Nc1cccc(-c2nccs2)c1OC` [Example 106]: the IC50 in assay [1] and in assay [2] was 80 nM in each case.

As to `CNC(=O)c1nnc(Nc2cc(C)n(C)n2)cc1Nc1cccc(-c2nccs2)c1OC` [Example 107], the IC50 is 140 nM in assay [1] and 90 nM in assay [2].

`CNC(=O)c1nnc(Nc2cc(C)ncn2)cc1Nc1cccc(-c2ncn(C)n2)c1OC` [Example 109]: the IC50 in assay [1] came to 7.13 nM; in assay [2], 10 nM.

With `CNC(=O)c1nnc(Nc2cc(CO)ccn2)cc1Nc1cccc(-c2ncn(C)n2)c1OC` [Example 110], the IC50 in assay [1] came out at 20 nM; in assay [2], 80 nM.

Take `CNC(=O)c1nnc(Nc2ccn(C)n2)cc1Nc1cccc(-c2ncccn2)c1OC` [Example 111]: the IC50 in assay [1] is 10 nM; in assay [2] it was 30 nM.

For `CNC(=O)c1nnc(Nc2cnc(C)cn2)cc1Nc1cccc(-c2ncccn2)c1OC` [Example 113], the IC50 in assay [1] came to 4.41 nM; in assay [2], 30 nM.

Take `CCc1cc(Nc2cc(Nc3cccc(-c4ncn(C)n4)c3OC)c(C(=O)NC)nn2)nc(C)n1` [Example 115]: the IC50 in assay [1] amounted to 1.6 nM; in assay [2], 2.96 nM.

As for `CNC(=O)c1nnc(NC(=O)C2CC2)cc1Nc1cccc(-c2ncc(F)cn2)c1OC` [Example 116], the IC50 in assay [1] amounted to 30 nM; in assay [2], 20 nM.

Take `CNC(=O)c1nnc(Nc2ccccn2)cc1Nc1cccc(-c2ncc(C)s2)c1OC` [Example 117]: the figures for the IC50 in assay [1] and in assay [2] were 30 nM and 80 nM, respectively.

For `CNC(=O)c1nnc(Nc2ccncn2)cc1Nc1cccc(-c2ncccn2)c1OC` [Example 118], the IC50 in assay [1] worked out at 20 nM; in assay [2] it was 30 nM.

Regarding `CNC(=O)c1nnc(Nc2cc(C)ncn2)cc1Nc1cccc(-c2ncccn2)c1OC` [Example 119], the IC50 in assay [1] was 7.37 nM; in assay [2] it was 10 nM.

With `CNC(=O)c1nnc(Nc2cc(C(C)(C)O)ccn2)cc1Nc1cccc(-c2ncn(C)n2)c1OC` [Example 120], the IC50 was found to be 10 nM in assay [1] and 60 nM in assay [2].

For the molecule `CNC(=O)c1nnc(Nc2cc(C)nc(C)n2)cc1Nc1cccc(-c2ncccn2)c1OC` [Example 121], the IC50 came out at 2.33 nM in assay [1] and 2.64 nM in assay [2].

With `CNC(=O)c1nnc(Nc2ccc(C)nn2)cc1Nc1cccc(-c2ncccn2)c1OC` [Example 122], the IC50 in assay [1] came to 3.2 nM; in assay [2] it was 30 nM.

Consider `CNC(=O)c1nnc(Nc2cccnn2)cc1Nc1cccc(-c2ncccn2)c1OC` [Example 123], for which the IC50 in assay [1] was found to be 6.81 nM; in assay [2], 5.9 nM.

On to `CNC(=O)c1nnc(Nc2cc(C)c(F)cn2)cc1Nc1cccc(-c2ncc(C)s2)c1OC` [Example 124], for which the results for the IC50 in assay [1] and in assay [2] were 490 nM and 700 nM, respectively.

In the case of `CNC(=O)c1nnc(NC(=O)C2CC2)cc1Nc1cccc(-c2cscn2)c1OC` [Example 126], the IC50 in assay [1] was determined as 30 nM; in assay [2] it was 40 nM.

Take `CCOc1ccnc(Nc2cc(Nc3cccc(-c4ncn(C)n4)c3OC)c(C(=O)NC)nn2)c1` [Example 127]: the half-inhibitory concentration (IC50) stood at 20 nM in assay [1] and 30 nM in assay [2].

Take `CCc1ccnc(Nc2cc(Nc3cccc(-c4ncn(C)n4)c3OC)c(C(=O)NC)nn2)c1` [Example 128]: the values for the half-inhibitory concentration (IC50) in assay [1] and in assay [2] were 3.17 nM and 6.08 nM, respectively.

As to `CNC(=O)c1nnc(Nc2cc(C)c(F)cn2)cc1Nc1cccc(-c2cscn2)c1OC` [Example 129], the results for the IC50 in assay [1] and in assay [2] were 10 nM and 20 nM, respectively.

For `CNC(=O)c1nnc(Nc2cc(C)nc(C)n2)cc1Nc1cccc(-c2cscn2)c1OC` [Example 130], the IC50 was found to be 10 nM in assay [1] and 9.7 nM in assay [2].

For the molecule `CNC(=O)c1nnc(Nc2cc(C)n(C)n2)cc1Nc1cccc(-c2cscn2)c1OC` [Example 131], the IC50 in assay [1] and in assay [2] was 20 nM each time.

Take `CNC(=O)c1nnc(Nc2ccccn2)cc1Nc1cccc(-c2cscn2)c1OC` [Example 132]: the IC50 in assay [1] and in assay [2] was 20 nM throughout.
